Reference: article PMC9871236, “Differentiated HT22 cells as a novel model for in vitro screening of serotonin reuptake inhibitors” (Frontiers in Pharmacology, 2023)

Target: T1, serotonin transporter (SERT) (Mus musculus, UniProt Q60857)
T1 construct: gene Slc6a4
Assay: fluoxetine-sensitive accumulation of fluorescent substrate ([…]) in HT22 cells
Assay type: cell-based

T1 sequence (Q60857 whole entry): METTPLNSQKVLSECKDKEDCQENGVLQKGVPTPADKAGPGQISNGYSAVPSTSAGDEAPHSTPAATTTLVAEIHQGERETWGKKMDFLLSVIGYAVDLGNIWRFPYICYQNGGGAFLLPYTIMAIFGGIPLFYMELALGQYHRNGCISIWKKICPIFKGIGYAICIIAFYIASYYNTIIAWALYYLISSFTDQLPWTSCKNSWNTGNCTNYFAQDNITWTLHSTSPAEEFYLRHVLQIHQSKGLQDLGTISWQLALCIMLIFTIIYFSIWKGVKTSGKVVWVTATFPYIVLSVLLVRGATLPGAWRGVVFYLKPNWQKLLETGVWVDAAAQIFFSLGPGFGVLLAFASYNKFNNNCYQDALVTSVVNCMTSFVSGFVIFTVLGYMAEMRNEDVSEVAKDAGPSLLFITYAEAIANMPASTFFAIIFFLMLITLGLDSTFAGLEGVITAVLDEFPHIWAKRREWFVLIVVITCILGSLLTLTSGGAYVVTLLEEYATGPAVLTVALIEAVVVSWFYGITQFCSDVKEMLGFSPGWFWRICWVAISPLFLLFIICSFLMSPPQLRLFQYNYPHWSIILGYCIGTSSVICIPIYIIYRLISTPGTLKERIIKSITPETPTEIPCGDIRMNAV

CN(C)c1ccc(-c2cc[n+](C)cc2)cc1 [APP+, 4-(4-(dimethylamino)phenyl)-1-methylpyridinium iodide]
fluoxetine-sensitive accumulation of fluorescent substrate (10 uM) in HT22 cells: A significant increase in APP^+ reuptake was detected in differentiated HT22 cells compared to undifferentiated cells
